biological target: T1, IRAK4 (Homo sapiens, UniProt Q9NWZ3); assay: IRAK4 Enzymatic Assay; format: biochemical; conditions: His-TEV-IRAK4 20 ng/well, ATP 2 μM, STK1-biotin peptide 300 nM, 3 hours at 30° C., FlashPlate radioactivity
T1 construct: His (N); TEV cleavage site (N)
T1 sequence (Q9NWZ3 1-460): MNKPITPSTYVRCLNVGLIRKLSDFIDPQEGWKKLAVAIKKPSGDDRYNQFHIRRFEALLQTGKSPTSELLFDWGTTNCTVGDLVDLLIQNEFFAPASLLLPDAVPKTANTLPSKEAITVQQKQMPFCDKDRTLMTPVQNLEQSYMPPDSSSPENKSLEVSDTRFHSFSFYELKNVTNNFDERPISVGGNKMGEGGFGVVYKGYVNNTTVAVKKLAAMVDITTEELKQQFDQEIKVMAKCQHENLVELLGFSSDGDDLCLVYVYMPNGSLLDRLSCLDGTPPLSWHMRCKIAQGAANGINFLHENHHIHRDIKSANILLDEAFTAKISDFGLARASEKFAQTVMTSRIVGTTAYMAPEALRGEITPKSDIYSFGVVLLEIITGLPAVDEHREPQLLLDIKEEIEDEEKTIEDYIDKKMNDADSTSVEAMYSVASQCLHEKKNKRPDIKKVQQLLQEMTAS
Summary of the method: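 Recombinant His-TEV-tagged IRAK4 (20 ng/well) phosphorylates biotinylated STK1 peptide (300 nM) with 2 μM ATP plus [^33P]ATP, 3 h at 30 °C in pH 7.0 HEPES buffer with MgCl2 and MnCl2; compounds tested 20 μM to 1 nM. Reaction stopped with EDTA; incorporated radioactivity counted on streptavidin FlashPlates.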

First: CN(C)C(=O)C1CC(n2cc(-c3cnc(-c4cccc(-c5cnn(C)c5)c4)nc3)cn2)C1 (stereo not shown) [Example 158, 3-(4-{2-[3-(1-Methyl-1H-pyrazol-4-yl)-phenyl]-pyrimidin-5-yl}-pyrazol-1-yl)-cyclobutanecarboxylic acid dimethylamide]
Second: CN(CCO)C(=O)[C@H]1CC[C@H](n2cc(-c3cnc(-c4cccc(-c5cnn(C)c5)c4)nc3)cn2)CC1 [Example 185, trans-4-(4-{2-[3-(1-Methyl-1H-pyrazol-4-yl)-phenyl]-pyrimidin-5-yl}-pyrazol-1-yl)-cyclohexanecarboxylic acid (2-hydroxy-ethyl)-methyl-amide]
The IC50 of the first is higher: 100 to 1000 nM for the first, less than 100 nM for the second. The second is the more potent here.

`COCCNC(=O)[C@H]1CC[C@H](n2cc(-c3cnc(-c4cccc(-c5cnn(C)c5)c4)nc3)cn2)CC1` [Example 159, Trans-4-(4-{2-[3-(1-Methyl-1H-pyrazol-4-yl)-phenyl]-pyrimidin-5-yl}-pyrazol-1-yl)-cyclohexanecarboxylic acid (2-methoxy-ethyl)-amide] and `Cn1cc(-c2cccc(-c3ncc(-c4cnn([C@H]5CC[C@H](C(=O)NCCO)CC5)c4)cn3)c2)cn1` [Example 184, trans-4-(4-{2-[3-(1-Methyl-1H-pyrazol-4-yl)-phenyl]-pyrimidin-5-yl}-pyrazol-1-yl)-cyclohexanecarboxylic acid (2-hydroxy-ethyl)-amide] cannot be ordered by IC50: less than 100 nM for the first, less than 100 nM for the second.

`CN1CCN(C(=O)[C@H]2CC[C@H](n3cc(-c4cnc(-c5cccc(-c6cnn(C)c6)c5)nc4)cn3)CC2)CC1` [Example 160, Trans-(4-Methyl-piperazin-1-yl)-[4-(4-{2-[3-(1-methyl-1H-pyrazol-4-yl)-phenyl]-pyrimidin-5-yl}-pyrazol-1-yl)-cyclohexyl]-methanone] and `Cn1cc(-c2cccc(-c3ncc(-c4cnn([C@H]5CC[C@H](C(=O)N6CCOCC6)CC5)c4)cn3)c2)cn1` [Example 162, Trans-[4-(4-{2-[3-(1-Methyl-1H-pyrazol-4-yl)-phenyl]-pyrimidin-5-yl}-pyrazol-1-yl)-cyclohexyl]-morpholin-4-yl-methanone] cannot be ordered by IC50: less than 100 nM for the first, less than 100 nM for the second.

First: CC(=O)N[C@H]1CC[C@@H](n2cc(-c3cnc(-c4cccc(-c5cnn(C)c5)c4)nc3)cn2)CC1 [Example 161, Cis-N-[4-(4-{2-[3-(1-Methyl-1H-pyrazol-4-yl)-phenyl]-pyrimidin-5-yl}-pyrazol-1-yl)-cyclohexyl]-acetamide]
Second: COCCC(=O)N[C@H]1CC[C@@H](n2cc(-c3cnc(-c4cccc(-c5cnn(C)c5)c4)nc3)cn2)CC1 [Example 166, Cis-3-Methoxy-N-[4-(4-{2-[3-(1-methyl-1H-pyrazol-4-yl)-phenyl]-pyrimidin-5-yl}-pyrazol-1-yl)-cyclohexyl]-propionamide]
The IC50 of the first is lower: less than 100 nM for the first, 100 to 1000 nM for the second.

`CC(C)[C@H](CO)NC(=O)[C@H]1CC[C@H](n2cc(-c3cnc(-c4cccc(-c5cnn(C)c5)c4)nc3)cn2)CC1` [Example 163, Trans-4-(4-{2-[3-(1-Methyl-1H-pyrazol-4-yl)-phenyl]-pyrimidin-5-yl}-pyrazol-1-yl)-cyclohexanecarboxylic acid ((R)-1-hydroxymethyl-2-methyl-propyl)-amide] and `CC(CO)NC(=O)[C@H]1CC[C@H](n2cc(-c3cnc(-c4cccc(-c5cnn(C)c5)c4)nc3)cn2)CC1` (stereo partly drawn) [Example 188, trans-4-(4-{2-[3-(1-Methyl-1H-pyrazol-4-yl)-phenyl]-pyrimidin-5-yl}-pyrazol-1-yl)-cyclohexanecarboxylic acid (2-hydroxy-1-methyl-ethyl)-amide] fall in the same range of IC50: 100 to 1000 nM for the first, 100 to 1000 nM for the second.

First: Cn1cc(-c2cccc(-c3ncc(-c4cnn(C5CCN([C@H]6CCOC[C@H]6F)CC5)c4)cn3)c2)cn1 [Example 167, 5-{1-[1-((3S,4S)-3-Fluoro-tetrahydro-pyran-4-yl)-piperidin-4-yl]-1H-pyrazol-4-yl}-2-[3-(1-methyl-1H-pyrazol-4-yl)-phenyl]-pyrimidine]
Second: Cn1cc(-c2cccc(-c3ncc(-c4cnn([C@H]5CC[C@H](O)CC5)c4)cn3)c2)cn1 [Example 182, Trans-4-(4-{2-[3-(1-Methyl-1H-pyrazol-4-yl)-phenyl]-pyrimidin-5-yl}-pyrazol-1-yl)-cyclohexanol]
The IC50 of the first is higher: 100 to 1000 nM for the first, less than 100 nM for the second.

`CO[C@@H]1CCN(C(=O)[C@H]2CC[C@H](n3cc(-c4cnc(-c5cccc(-c6cnn(C)c6)c5)nc4)cn3)CC2)C1` [Example 168, ((R)-3-Methoxy-pyrrolidin-1-yl)-trans-[4-(4-{2-[3-(1-methyl-1H-pyrazol-4-yl)-phenyl]-pyrimidin-5-yl}-pyrazol-1-yl)-cyclohexyl]-methanone] and `Cn1cc(-c2cccc(-c3ncc(-c4cnn([C@H]5CC[C@H](C(=O)N6CC[C@@H](O)C6)CC5)c4)cn3)c2)cn1` [Example 186, ((R)-3-Hydroxy-pyrrolidin-1-yl)-[4-(4-{2-[3-(1-methyl-1H-pyrazol-4-yl)-phenyl]-pyrimidin-5-yl}-pyrazol-1-yl)-cyclohexyl]-methanone] cannot be ordered by IC50: less than 100 nM for the first, less than 100 nM for the second.

First: CNC(=O)C(CCO)n1cc(-c2cnc(-c3cccc(-c4cnn(C)c4)c3)nc2)cn1 (stereo not shown) [Example 169, 4-Hydroxy-N-methyl-2-(4-{2-[3-(1-methyl-1H-pyrazol-4-yl)-phenyl]-pyrimidin-5-yl}-pyrazol-1-yl)-butyramide]
Second: Cn1cc(-c2cccc(-c3ncc(-c4cnn(C5CCS(=O)(=O)CC5)c4)cn3)c2)cn1 [Example 176, 5-[1-(1,1-Dioxo-hexahydro-1l6-thiopyran-4-yl)-1H-pyrazol-4-yl]-2-[3-(1-methyl-1H-pyrazol-4-yl)-phenyl]-pyrimidine]
The IC50 of the first is higher: 1000 to 5000 nM for the first, 100 to 1000 nM for the second.

First: Cn1cc(-c2cccc(-c3ncc(-c4cnn([C@H]5CC[C@H](C(=O)NC6CC6)CC5)c4)cn3)c2)cn1 [Example 170, Trans-4-(4-{2-[3-(1-Methyl-1H-pyrazol-4-yl)-phenyl]-pyrimidin-5-yl}-pyrazol-1-yl)-cyclohexanecarboxylic acid cyclopropylamide]
Second: CC(C)NC(=O)[C@H]1CC[C@H](n2cc(-c3cnc(-c4cccc(-c5cnn(C)c5)c4)nc3)cn2)CC1 [Example 174, 4-(4-{2-[3-(1-Methyl-1H-pyrazol-4-yl)-phenyl]-pyrimidin-5-yl}-pyrazol-1-yl)-cyclohexanecarboxylic acid isopropylamide]
The IC50 of the first is lower: less than 100 nM for the first, 100 to 1000 nM for the second.

`CN(C)CCNC(=O)[C@H]1CC[C@H](n2cc(-c3cnc(-c4cccc(-c5cnn(C)c5)c4)nc3)cn2)CC1` [Example 171, 4-(4-{2-[3-(1-Methyl-1H-pyrazol-4-yl)-phenyl]-pyrimidin-5-yl}-pyrazol-1-yl)-cyclohexanecarboxylic acid (2-dimethylamino-ethyl)-amide] and `CC(C)CNC(=O)[C@H]1CC[C@H](n2cc(-c3cnc(-c4cccc(-c5cnn(C)c5)c4)nc3)cn2)CC1` [Example 173, Trans-4-(4-{2-[3-(1-Methyl-1H-pyrazol-4-yl)-phenyl]-pyrimidin-5-yl}-pyrazol-1-yl)-cyclohexanecarboxylic acid isobutyl-amide] cannot be ordered by IC50: less than 100 nM for the first, less than 100 nM for the second.

Compared with `Cn1cc(-c2cccc(-c3ncc(-c4cnn(C5CCCNCC5)c4)cn3)c2)cn1` (stereo not shown) [Example 172, 4-(4-{2-[3-(1-Methyl-1H-pyrazol-4-yl)-phenyl]-pyrimidin-5-yl}-pyrazol-1-yl)-azepane], `Cn1cc(-c2cccc(-c3ncc(-c4cnn([C@@H]5CCCNC5)c4)cn3)c2)cn1` [Example 183, 2-[3-(1-Methyl-1H-pyrazol-4-yl)-phenyl]-5-((R)-1-piperidin-3-yl-1H-pyrazol-4-yl)-pyrimidine] is higher in IC50: less than 100 nM for the first, 100 to 1000 nM for the second. The first is the more potent here.

`Cn1cc(-c2cccc(-c3ncc(-c4cnn(C5CCN(c6ccccc6F)CC5)c4)cn3)c2)cn1` [Example 175, 5-{1-[1-(2-Fluoro-phenyl)-piperidin-4-yl]-1H-pyrazol-4-yl}-2-[3-(1-methyl-1H-pyrazol-4-yl)-phenyl]-pyrimidine] and `Cn1cc(-c2cccc(-c3ncc(-c4cnn(C5CCC(=O)CC5)c4)cn3)c2)cn1` [Example 189, 4-(4-{2-[3-(1-Methyl-1H-pyrazol-4-yl)-phenyl]-pyrimidin-5-yl}-pyrazol-1-yl)-cyclohexanone] fall in the same range of IC50: 100 to 1000 nM for the first, 100 to 1000 nM for the second.

`Cn1cc(-c2cccc(-c3ncc(-c4cnn(C5CCCS(=O)(=O)C5)c4)cn3)c2)cn1` (stereo not shown) [Example 177, 5-[1-(1,1-Dioxo-hexahydro-1l6-thiopyran-3-yl)-1H-pyrazol-4-yl]-2-[3-(1-methyl-1H-pyrazol-4-yl)-phenyl]-pyrimidin] and `Cn1cc(-c2cccc(-c3ncc(-c4cnn(C5CC6COCC(C5)N6)c4)cn3)c2)cn1` (stereo not shown) [Example 179, 7-(4-{2-[3-(1-Methyl-1H-pyrazol-4-yl)-phenyl]-pyrimidin-5-yl}-pyrazol-1-yl)-3-oxa-9-aza-bicyclo[3.3.1]nonane] cannot be ordered by IC50: less than 100 nM for the first, less than 100 nM for the second.

`COCC(C)NC(=O)[C@H]1CC[C@H](n2cc(-c3cnc(-c4cccc(-c5cnn(C)c5)c4)nc3)cn2)CC1` (stereo partly shown) [Example 178, 4-(4-{2-[3-(1-Methyl-1H-pyrazol-4-yl)-phenyl]-pyrimidin-5-yl}-pyrazol-1-yl)-cyclohexanecarboxylic acid (2-methoxy-1-methyl-ethyl)-amide] and `Cc1cc(-c2cccc(-c3ncc(-c4cnn([C@H]5CC[C@H](C(=O)N(C)C)CC5)c4)cn3)c2)cnn1` [Example 187, trans-4-(4-{2-[3-(6-Methyl-pyridazin-4-yl)-phenyl]-pyrimidin-5-yl}-pyrazol-1-yl)-cyclohexanecarboxylic acid dimethylamide] cannot be ordered by IC50: less than 100 nM for the first, less than 100 nM for the second.
